US12560591B2, “Methods of treatment with CD8 T cell-mediated immune therapy” (Providence Health & Services—Oregon, priority 2019, dated 2026)

How the values were obtained:
ALK4 = molecular target: T1, ALK4 (Homo sapiens, UniProt P36896); conditions: reported in Lahn et al., Drug Des. Devel. Ther. 2015; cited from earlier work
T1 sequence (P36896 24-505): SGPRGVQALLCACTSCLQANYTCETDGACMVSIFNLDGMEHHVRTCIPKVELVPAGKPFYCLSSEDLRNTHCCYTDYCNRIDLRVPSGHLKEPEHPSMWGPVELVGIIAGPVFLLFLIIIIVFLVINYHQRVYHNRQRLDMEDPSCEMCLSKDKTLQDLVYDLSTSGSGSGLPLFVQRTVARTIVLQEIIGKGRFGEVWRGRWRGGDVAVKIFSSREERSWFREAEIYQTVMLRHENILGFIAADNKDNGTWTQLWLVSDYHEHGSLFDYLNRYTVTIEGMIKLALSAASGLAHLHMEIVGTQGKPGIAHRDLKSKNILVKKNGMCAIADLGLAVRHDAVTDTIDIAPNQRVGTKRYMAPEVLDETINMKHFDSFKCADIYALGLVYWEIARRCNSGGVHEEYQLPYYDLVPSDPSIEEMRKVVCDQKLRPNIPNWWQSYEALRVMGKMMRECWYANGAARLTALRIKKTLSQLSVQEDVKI

[1] = tested on: peripheral blood CXCR3^+CD45^+CD3^+CD4^− T cells; test: Clinical trial NCT02688712: peripheral blood CXCR3 flow cytometry, baseline vs day 15; format: in vivo, human; conditions: rectal cancer patients, after two weeks of LY2157299, majority of patients, FIG. 12C
Source text: FIGS. 12A-12E are a series of panels showing TGFβ-mediated suppression of CXCR3-dependent CD8^+ T cell chemotaxis is relieved by LY2157299 in human patients with rectal cancer. […] FIG. 12B illustrates the clinical trial schema for a phase II clinical trial of rectal cancer patients and sample collection intervals. Patients receive two cycles of LY2157299 on days 1-14 and again on days 30-43 while receiving standard of care chemoradiation on days 15-57 prior to surgery. […] Patients are grouped by nodal status following neoadjuvant treatment (ypN). On the right, percent change in frequency of CXCR3^+CD3^+CD4^− T cells between days 1 and 15 is shown versus the neoadjuvant rectal (NAR) score. […] Each patient is shown (thin gray lines) along with the mean of all patients (thick black line). […] Error bars in each subpanel are standard deviations.
Clinical trial analysis: Patients enrolled in clinical trial NCT02688712 provided consent prior to tissue collection as designed and approved in PHS IRB #15-050. […] Pathological assessment for neoadjuvant treatment response was evaluated in the surgical resection specimen including excised lymph nodes. Neoadjuvant rectal (NAR) score was calculated by the published, validated formula (George et al, Curr. Colorectal Cancer Rep. 11: 275-280): [5*ypN−3(cT−ypT)+12]^2/9.61. […]

Structure (SMILES): Cc1cccc(-c2nn3c(c2-c2ccnc4ccc(C(N)=O)cc24)CCC3)n1 [LY2157299]
- Kd for ALK4 compared with ALK5 (ALK4): lower Kd for ALK4 than ALK5
- peripheral blood CXCR3 expression, change day 0 to day 15 [1]: decrease in peripheral blood CXCR3 expression
